# Key:
# [1] = test system: scratched monolayers of HaCaT cells (human keratinocyte cell line); experiment: In vitro wound healing model (scratched HaCaT monolayer); type: cell-based; details: AG 20 μM, 15 min pre-treatment, no bacterial extract, 20 hours
# Protocol: The inventor has evaluated the ability of extracts obtained from selected bacterial strains to influence wound re-epithelialization using an in vitro artificial wound model. The rate of closure of the scratched monolayer in untreated cells and in cells treated with each bacterial extract at the concentration of 50 μg/ml is shown and evaluated through the observation of the repopulation of the area between the wound edges at different time points after the wound generation. In order to quantitatively analyze the effects of the bacterial extracts on the closure of the wound area, images obtained by using an inverted phase contrast microscope at 0, 20, 28 and 45 hours after the scratch were acquired and expressed as a percentage of closure by using an automatical calculation system to evaluate the percentage of area occupied by said cells with respect to the total surface area analyzed. […] The results expressed as percentages of relative re-epithelialization (mean±SEM from three independent experiments conducted in duplicate) as well as the images representing microscopic observations of scratched monolayers are shown in FIGS. 1A and 1B respectively.
# The HaCaT cell line of spontaneously immortalized human keratinocytes was purchased from Cell Lines Service GmbH (Eppelheim, Germany). […] Untreated cells were also analysed and used as negative controls. […]
# iNOS = experiment: Nitrite levels assay (Griess) in culture medium of scratched HaCaT monolayers; type: cell-based, human; details: AG 20 μM, 15 min pre-treatment, no bacterial extract, 28 hours
# Protocol: The scratched monolayers of HaCaT cells were incubated with or without AG at the concentration of 20 μM for 15 minutes before treatment with the bacterial extracts. Nitrite levels in the culture medium were analyzed by Griess reagent after 28 hours. Data shown are expressed as the mean±SEM of three independent experiments conducted in duplicate. The two-way analysis of variance followed by the Bonferroni's post-hoc test was used to assess the presence of statistically significant differences between the data groups: *P<0.05, **P<0.01, ****P<0.0001 with respect to the control (untreated). #P<0.05, ##P<0.01, ###P<0.001, ####P<0.0001 with respect to each corresponding culture without AG. The ability of bacterial extracts to regulate iNOS was further analyzed by measuring the nitrite levels in supernatants of scratched monolayers of HaCaT cells pre-treated with AG, a selective iNOS inhibitor, or not treated with such inhibitor (known from T. P. Misko et al., Eur. J. Pharmacol, 1993, 233:119-125). NO production was indirectly evaluated with the use of the Griess method by measuring nitrite levels using nitrate reductase and the Griess reaction based on a colorimetric assay. […] Absorbance was measured by spectrophotometric reading at 550 nm using a microplate reader (Bio-Rad Hercules, California, USA). […]
# HaCaT keratinocytes = experiment: Trypan blue dye exclusion test of HaCaT viability; type: cell-based, human; details: 0.1%; positive control; P≤0.01
# Protocol: The HaCaT cell line of spontaneously immortalized human keratinocytes was purchased from Cell Lines Service GmbH (Eppelheim, Germany). HaCaT cells were cultured in DMEM supplemented with 10% (v/v) fetal calf serum (FCS), 2 mM L-glutamine, 100 U/ml penicillin and 100 μg/ml streptomycin (Euro Clone, West York, UK). The culture conditions were kept constantly at 37° C. in a humidified atmosphere with 5% CO2. After reaching 80% confluency, cells were seeded, as specified below, in 6- or 12-well plates for sterile cell cultures (Becton Dickinson, San José, CA) at the concentration of 18,000 cells/cm^2. Non-adherent cells were removed by gentle washing in phosphate buffer (PBS, pH=7.4). Cells grown in a 12-well plate were collected at 20, 28 and 45 hours and live cells were counted with the trypan blue dye exclusion test (Euro Clone, West York, UK). […] Untreated cells were also analysed and used as negative controls. The cells were transferred to a Bürker counting chamber and counted under a microscope Eclipse 50i (Nikon Corporation, Japan). For the selection of suitable concentrations of bacterial extract expressed as μg protein/ml, the viability of the HaCaT keratinocytes was analyzed using the trypan blue exclusion test. […]
# [2] = Clinical course of diabetes ulcers and toe amputation wound in a patient (Example 1); type: in vivo, human; details: 500 mg orally every 12 hours, four weeks
# From the text: The probiotic formulation was a composition comprising Lactobacillus plantarum NCIMB 43029, Lactobacillus acidophilus NCIMB 43030 and the known Streptococcus thermophilus (SEQ ID NO: 10). 0.5 g of composition was applied once daily.
# The use of the probiotic formulation was discontinued on day 60, 24 days after treatment.
compound,measurement,setting,value
"N=C(N)NN [AG, aminoguanidine]",re-epithelialization (repairing) of the control monolayer,[1],strong effect on the physiological repairing of the control monolayer
same,nitrite production induced by scratching the control monolayer,iNOS,significantly prevented the increase in nitrite production
Triton X,cell viability,HaCaT keratinocytes,significant reduction
CC1(C)S[C@@H]2[C@H](NC(=O)[C@H](N)c3ccc(O)cc3)C(=O)N2[C@H]1C(=O)O [amoxicillin],clinical picture of the wounds (wound exudate),[2],worsening clinical picture
